Experimental data published in ChEMBL document CHEMBL3244058, “Dibenz[b,e]oxepinalkanoic acids as nonsteroidal antiinflammatory agents. 2. Dihydro-10-oxofuro-and -thieno[3,2-c][1]benzoxepin-8-acetic acids” (J Med Chem, 1977).

Key:
Rattus norvegicus [1] = assay: Ratio of indomethacin ED50 to compound ED50 for po dosed rat assessed as inhibition of carrageenan-induced paw edema; type: functional
Rattus norvegicus [2] = assay: Antiinflammatory activity in po dosed rat assessed as inhibition of carrageenan-induced paw edema; type: functional
[3] = Gastrointestinal toxicity in po dosed rat assessed as induction of gastric irritation; type: organism-based, Stomach; conditions: in vivo, read-out: ID50 (the source's name)
[4] = Therapeutic index, ratio of ID50 for po dosed rat to ED50 for po dosed rat; type: organism-based; conditions: in vivo, read-out: TI

| SMILES | Ratio ED50 (Rattus norvegicus [1]) | ED50 (Rattus norvegicus [2]) [mg/kg] | TD50 [3] [mg/kg] | selectivity ratio [4] |
| --- | --- | --- | --- | --- |
| O=C(O)Cc1ccc2c(c1)C(=O)c1sccc1CO2 | 1.3 | 3.37 | 33.7 | 10 |
| O=C(O)Cc1ccc2c(c1)C(=O)c1occc1CO2 | – | 33.3 | – | – |
| COc1ccc2c(c1)c(CC(=O)O)c(C)n2C(=O)c1ccc(Cl)cc1 [INDOMETHACIN] | – | 4.35 | – | 0.4 |
| O=C(O)Cc1ccc2c(c1)C(=O)c1ccccc1CO2 [ISOXEPAC] | – | 6.36 | – | 13 |
